Data: article PMC9332802, “Structure–Activity Relationship of New Chimeric Analogs of Mastoparan from the Wasp Venom Paravespula lewisii” (International Journal of Molecular Sciences, 2022)
Ends that are not written are not given here.

Legend:
[1] = test system: HCT116 cells; assay: MTT cytotoxicity assay; type: cell-based, human; conditions: for Effect on cell viability up to 10 µM: 24 h, peptide up to 10 µM; for LD50 (peptide concentration sufficient to kill 50% of the peptide-treated cells): 24 h incubation, 0.05–50 µM, from regression curves of cell viability, triplicate
Procedure: (§1) The cytotoxicity of the selected MP analogs, MP-RIP and RIP-MP, was determined against two human cell lines. The viability of HT29 and HCT116 cells incubated with various concentrations of MP-RIP and RIP-MP was assessed by the MTT assay (Figure 4). […] Moreover, based on the regression curves of cell viability, lethal doses of MP analogs sufficient to kill 50% of the peptide-treated cells (LD50) were calculated. […] The viability of the HT29 cells indicates relatively low cytotoxicity of both analogs at a concentration corresponding to the MIC value against S. aureus. In the case of HCT116 cells, the above relationships were less evident.
(§2) Human cell lines HT29 (ATCC cat. # HTB-38) and HCT116 (ATCC cat. # CCL-247) were cultured in McCoy (HT29) or Dulbecco’s Modified Eagle’s (DMEM) medium (HCT116), supplemented with 10% fetal bovine serum (FBS), penicillin (100 U/mL) and streptomycin (100 µg/mL). Cultures were conducted at 37 °C in humidified atmosphere of 5% CO2. Cells were cultured for 24 h before initiation of the experiments. The cell viability was determined by the 3-(4, 5-dimethylthazol-2-yl)-2, 5-diphenyl tetrazolium bromide (MTT) assay. Briefly, HT29 or HCT116 cells were seeded in 96-well plates to a density of 10^5 cells/well in 0.2 mL of above-specified culture media. After 24 h, the following concentrations of peptides were added to wells: 0.05, 0.1, 0.5, 1, 5, 10, 25, 50 µM. As a negative control, cells were treated with 0.9% NaCl. After 24 h of incubation (5% CO2, 37 °C), 15 µL MTT solution was added into each well to reach the final concentration of […]. After further incubation for 2 h (5% CO2, 37 °C) the cells were centrifuged for 3 min at 4 °C and the medium was removed. Formazan crystals present in mitochondria of metabolically active cells were dissolved with 100 μL of dimethylsulfoxide (DMSO), and the dye concentration was determined at 570 nm wavelength. Cell viability was expressed as a percentage (mean value ± SEM) of those cells treated with 0.9% NaCl as negative control. Lethal doses, which correspond to peptide concentrations sufficient to kill 50% of the peptide-treated cells (LD50), were determined with GraphPad Prism 7.0 software (GraphPad Software Inc., La Jolla, CA, USA). The assay was performed in triplicate.

[2] = test system: HT29 cells; assay: MTT cytotoxicity assay; type: cell-based, human; conditions: for Effect on cell viability up to 10 µM: 24 h, peptide up to 10 µM; for LD50 (peptide concentration sufficient to kill 50% of the peptide-treated cells): 24 h incubation, 0.05–50 µM, from regression curves of cell viability, triplicate
Procedure: as §1, §2

[3] = test system: Pseudomonas aeruginosae NCTC 6749; assay: microbe, parasite or virus in culture; type: cell-based; conditions: broth microdilution (CLSI), Mueller–Hinton broth, 37 °C, peptide 0.125 to […], no visible growth, triplicate
Procedure: (§3) Antimicrobial activity of peptides was examined against three reference strains: Staphylococcus aureus NCTC 4163, Escherichia coli NCTC 8196 and Pseudomonas aeruginosae NCTC 6749 dedicated for the determination of antibacterial activity. The bacterial strains were stored in glycerol stock (Sigma-Aldrich, St. Louis, MO, USA) at −80 °C. Before testing, the strains were cultured aerobically in Tryptic Soy Agar (BD DIFCO, Franklin Lakes, NJ, USA) at 37 °C for 20 h. The susceptibility of microorganisms to the peptides was determined by the broth microdilution assay according to the procedures outlined by CLSI [49]. […] In order to prepare the bacterial suspension, an overnight culture of bacteria in Tryptic Soy Broth (BD DIFCO, Franklin Lakes, NJ, USA) was diluted in sterile saline to a final concentration of approximately 10^7 CFU/mL of bacteria. Aliquots (5 µL) of bacterial suspension were added to each peptide solution. The sterility control (containing the tested peptide in broth) and the growth control (containing the reference strain in broth without the tested peptide) were also set up. The plates were incubated at 37 °C under aerobic conditions. The results are expressed as the minimal inhibitory concentration (MIC) of the compounds in question. The MIC was defined as the lowest concentration at which no visible growth of bacteria (no turbidity) was observed. The assay was performed in triplicate.

[4] = cited from earlier work
From the text: However, comparing their cytotoxic properties with other MP analogs known from the previous literature reports appears to be difficult due to the different cell lines used in cytotoxicity assays.

[5] = test system: Staphylococcus aureus NCTC 4163; assay: microbe, parasite or virus in culture; type: cell-based; conditions: broth microdilution (CLSI), Mueller–Hinton broth, 37 °C, peptide 0.125 to […], no visible growth, triplicate
Procedure: as §3

[6] = test system: Escherichia coli NCTC 8196; assay: microbe, parasite or virus in culture; type: cell-based; conditions: broth microdilution (CLSI), Mueller–Hinton broth, 37 °C, peptide 0.125 to […], no visible growth, triplicate
Procedure: as §3

[7] = Circular dichroism spectroscopy, relative α-helix fraction; type: physicochemical; conditions: CD, peptide 0.15 mg/mL, 25 °C, three scans averaged
Procedure: Circular dichroism spectroscopy was applied to evaluate the conformational changes of peptides induced by membrane-mimetic environments. The secondary structures of MP and some of its MP analogs (Table 4) were determined in water, 50% 2,2,2-trifluoroethanol (TFE) and 0.1 M Tris buffer with the addition of 50 mM SDS. The relative α-helix fraction (fH) values presented in Table 4, calculated from the values of mean residue ellipticity at 222 nm, reflect the ability of peptides to adopt helical structure in the tested environments.
Circular dichroism (CD) spectra of peptides were recorded on a Jasco J-815 spectropolarimeter (Jasco Int. Co., Ltd., Tokyo, Japan). The CD spectra were acquired for peptides in a concentration of 0.15 mg/mL in water, 50% 2,2,2-trifluoroethanol (TFE) or 0.1 M tris(hydroxymethyl)aminomethane (Tris) buffer (pH 7.01) with the addition of 50 mM SDS (sodium dodecylsulphate) in 0.1 cm path length cuvettes. Measurements were taken at 25 °C in a spectral range of 193–260 nm with a bandwidth of 1 nm and response of 1 s. The spectra were averaged after three scans. Ellipticity was measured in mdeg units and converted to mean residue ellipticity (Θ). The relative helix content (fH) was calculated from the mean residue ellipticity values at 222 nm using the method proposed by Rohl and Baldwin [50] and described previously. Helical wheel projections (Figure 3) were made with HeliQuest https://heliquest.ipmc.cnrs.fr/ (accessed on 1 June 2022).

INLKALAALAKKILYSPWTNF-NH2 [MP-RIP]
Effect on cell viability up to 10 µM [1]: did not substantially affect the viability | LD50 (peptide concentration sufficient to kill 50% of the peptide-treated cells) [1]: 13.2 µM | Effect on cell viability up to 10 µM [2]: did not substantially affect the viability | LD50 (peptide concentration sufficient to kill 50% of the peptide-treated cells) [2]: 38.0 µM | MIC P. aeruginosae [3]: >256 µg/mL

LIKKALAALAKLNI-NH2 [retroMP, reference compound]
Fold lower cytotoxicity than MP [4]: 3.5 fold | MIC S. aureus [5]: >256 µg/mL | MIC E. coli [6]: 256 µg/mL | MIC P. aeruginosae [3]: 256 µg/mL | Relative α-helix fraction (fH), 0.1 M Tris + 50 mM SDS ([7]; 0.1 M Tris buffer pH 7.01 + 50 mM SDS, from mean residue ellipticity at 222 nm): 0.16 | Relative α-helix fraction (fH), water ([7]; water, from mean residue ellipticity at 222 nm (Rohl and Baldwin)): 0.19

YSPWTNFINLKALAALAKKIL-NH2 [RIP-MP]
Effect on cell viability up to 10 µM [1]: did not substantially affect the viability | LD50 (peptide concentration sufficient to kill 50% of the peptide-treated cells) [1]: 17.0 µM | Effect on cell viability up to 10 µM [2]: did not substantially affect the viability | LD50 (peptide concentration sufficient to kill 50% of the peptide-treated cells) [2]: 30.2 µM | MIC P. aeruginosae [3]: >256 µg/mL
